# The source made the active and inactive calls. The calls are words filed in the database; no cut-off is given here.
# Assays:
# [1] = target: Epidermal growth factor receptor (Homo sapiens) (UniProt P00533); assay: Displacement of [125I]-EGF from EGF receptor (unknown origin) at 1 uM
# [2] = target: Substance-P receptor (Homo sapiens) (UniProt P25103); assay: Displacement of [3H]-SR-140333 from tachykinin NK1 receptor (unknown origin) at 1 uM
# [3] = target: C-C chemokine receptor type 5 (Homo sapiens) (UniProt P51681); assay: Displacement of [125I]-MIP-1beta from CCR5 receptor (unknown origin) at 1 uM
# C-C chemokine receptor type 5 (Homo sapiens), sequence (P51681 whole entry, looked up): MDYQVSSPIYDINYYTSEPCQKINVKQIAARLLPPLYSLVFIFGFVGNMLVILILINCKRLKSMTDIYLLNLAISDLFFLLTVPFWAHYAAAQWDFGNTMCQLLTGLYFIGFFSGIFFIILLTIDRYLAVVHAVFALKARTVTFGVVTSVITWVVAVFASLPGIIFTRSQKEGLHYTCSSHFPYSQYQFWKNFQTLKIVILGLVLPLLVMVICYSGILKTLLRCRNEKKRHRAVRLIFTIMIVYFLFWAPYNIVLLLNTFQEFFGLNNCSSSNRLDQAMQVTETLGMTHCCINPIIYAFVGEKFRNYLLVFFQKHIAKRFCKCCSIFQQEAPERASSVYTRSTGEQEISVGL
# CYP2D6 = CYP2D6 (Homo sapiens, UniProt P10635); assay: Inhibition on CYP2D6 (unknown origin) at 1 uM; assay type: ADME
# [4] = target: Melanocortin receptor 3 (Homo sapiens) (UniProt P41968); assay: Displacement of [125I]-NDP-alpha-MSH from melanocortin MC3 receptor (unknown origin) at 1 uM
# Mus musculus [5] = assay: Toxicity in mouse assessed as increase in abdominal tone at 100 mg/kg, ip by Irwin test; assay type: organism-based; conditions: in vivo
# Mus musculus [6] = assay: Toxicity in mouse assessed as writhing at 100 mg/kg, ip by Irwin test; assay type: organism-based; conditions: in vivo
# [7] = target: Alpha-1A adrenergic receptor (Homo sapiens) (UniProt P35348); assay: Displacement of [3H]-prazosin from adrenergic alpha1A receptor (unknown origin) at 1 uM
# [8] = target: Neuropeptide Y receptor type 1 (Homo sapiens) (UniProt P25929); assay: Displacement of [125I]-Peptide YY from neuropeptide Y Y1 receptor (unknown origin) at 1 uM
# [9] = Metabolic stability in human microsomes assessed as amount of parent compound remaining after 5 mins; assay type: ADME, Microsome; conditions: read-out: Stability
# Histamine H2 receptor [10] = target: T1, Histamine H2 receptor (Homo sapiens, UniProt P25021); assay: Displacement of [125I]-aminopotentidine receptor from histamine H2 receptor (unknown origin) at 1 uM
# T1 sequence (P25021 whole entry): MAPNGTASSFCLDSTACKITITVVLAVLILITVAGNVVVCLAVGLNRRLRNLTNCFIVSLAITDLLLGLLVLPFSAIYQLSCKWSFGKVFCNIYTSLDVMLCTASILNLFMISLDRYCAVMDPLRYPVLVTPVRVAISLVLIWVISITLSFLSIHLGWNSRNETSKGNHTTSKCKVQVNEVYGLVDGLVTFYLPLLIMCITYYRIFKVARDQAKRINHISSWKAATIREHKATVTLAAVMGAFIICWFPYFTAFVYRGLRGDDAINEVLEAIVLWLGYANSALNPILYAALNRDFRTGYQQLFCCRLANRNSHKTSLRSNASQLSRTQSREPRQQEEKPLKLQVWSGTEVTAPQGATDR
# [11] = target: Sigma non-opioid intracellular receptor 1 (Cavia porcellus) (UniProt Q60492); assay: Agonist activity at sigma1 receptor assessed as potentiation of electrically stimulated contractions of the guinea pig vas deferens at 30 uM relative to (S)-3-PPP
# [12] = target: Muscarinic acetylcholine receptor M2 (Homo sapiens) (UniProt P08172); assay: Displacement of [3H]-N-methylscopolamine from muscarinic M2 receptor (unknown origin) at 1 uM
# [13] = target: Adenosine receptor A3 (Homo sapiens) (UniProt P0DMS8); assay: Displacement of [125I]-AB-MECA from adenosine A3 receptor (unknown origin) at 1 uM
# Adenosine receptor A3 (Homo sapiens), sequence (P0DMS8 whole entry, looked up): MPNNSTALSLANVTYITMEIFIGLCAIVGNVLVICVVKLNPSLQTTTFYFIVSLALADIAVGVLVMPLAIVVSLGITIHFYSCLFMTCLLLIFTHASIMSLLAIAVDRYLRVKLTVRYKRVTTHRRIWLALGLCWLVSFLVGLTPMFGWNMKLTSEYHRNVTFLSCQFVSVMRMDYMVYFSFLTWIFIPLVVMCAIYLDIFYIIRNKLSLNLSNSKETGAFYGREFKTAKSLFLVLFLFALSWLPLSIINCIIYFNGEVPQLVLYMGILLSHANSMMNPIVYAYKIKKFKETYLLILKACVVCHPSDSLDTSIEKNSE
# Mus musculus [14] = assay: Toxicity in mouse assessed as diarrhea at 30 mg/kg, ip measured for 60 mins by Irwin test; assay type: organism-based; conditions: in vivo, 1 h
# [15] = target: C-C chemokine receptor type 4 (Homo sapiens) (UniProt P51679); assay: Displacement of [125I]-TARC from CCR4 receptor (unknown origin) at 1 uM
# [16] = target: Muscarinic acetylcholine receptor M1 (Homo sapiens) (UniProt P11229); assay: Displacement of [3H]-N-methylscopolamine from muscarinic M1 receptor (unknown origin) at 1 uM
# Muscarinic acetylcholine receptor M1 (Homo sapiens), sequence (P11229 whole entry): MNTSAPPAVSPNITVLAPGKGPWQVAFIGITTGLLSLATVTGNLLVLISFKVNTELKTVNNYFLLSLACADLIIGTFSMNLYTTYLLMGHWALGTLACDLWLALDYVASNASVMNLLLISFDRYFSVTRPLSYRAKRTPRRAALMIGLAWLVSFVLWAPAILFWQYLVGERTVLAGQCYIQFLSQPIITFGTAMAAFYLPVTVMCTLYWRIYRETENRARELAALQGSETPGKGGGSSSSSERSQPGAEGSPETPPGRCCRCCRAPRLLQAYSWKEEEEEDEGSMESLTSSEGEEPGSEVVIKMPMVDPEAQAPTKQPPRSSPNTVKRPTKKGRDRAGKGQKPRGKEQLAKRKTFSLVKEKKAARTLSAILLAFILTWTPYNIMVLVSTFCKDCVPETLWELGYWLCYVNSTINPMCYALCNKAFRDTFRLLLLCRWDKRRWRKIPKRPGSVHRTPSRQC
# Homo sapiens [17] = species on record: Homo sapiens; assay: Displacement of [125I]-epibatidine from nicotinic acetylcholine receptor (unknown origin) at 1 uM
# [18] = target: Metabotropic glutamate receptor 5 (Homo sapiens) (UniProt P41594); assay: Displacement of [3H]-quisqulic acid from metabotropic glutamate receptor 5 (unknown origin) at 1 uM
# Metabotropic glutamate receptor 5 (Homo sapiens), sequence (P41594 21-1212 limits assumed): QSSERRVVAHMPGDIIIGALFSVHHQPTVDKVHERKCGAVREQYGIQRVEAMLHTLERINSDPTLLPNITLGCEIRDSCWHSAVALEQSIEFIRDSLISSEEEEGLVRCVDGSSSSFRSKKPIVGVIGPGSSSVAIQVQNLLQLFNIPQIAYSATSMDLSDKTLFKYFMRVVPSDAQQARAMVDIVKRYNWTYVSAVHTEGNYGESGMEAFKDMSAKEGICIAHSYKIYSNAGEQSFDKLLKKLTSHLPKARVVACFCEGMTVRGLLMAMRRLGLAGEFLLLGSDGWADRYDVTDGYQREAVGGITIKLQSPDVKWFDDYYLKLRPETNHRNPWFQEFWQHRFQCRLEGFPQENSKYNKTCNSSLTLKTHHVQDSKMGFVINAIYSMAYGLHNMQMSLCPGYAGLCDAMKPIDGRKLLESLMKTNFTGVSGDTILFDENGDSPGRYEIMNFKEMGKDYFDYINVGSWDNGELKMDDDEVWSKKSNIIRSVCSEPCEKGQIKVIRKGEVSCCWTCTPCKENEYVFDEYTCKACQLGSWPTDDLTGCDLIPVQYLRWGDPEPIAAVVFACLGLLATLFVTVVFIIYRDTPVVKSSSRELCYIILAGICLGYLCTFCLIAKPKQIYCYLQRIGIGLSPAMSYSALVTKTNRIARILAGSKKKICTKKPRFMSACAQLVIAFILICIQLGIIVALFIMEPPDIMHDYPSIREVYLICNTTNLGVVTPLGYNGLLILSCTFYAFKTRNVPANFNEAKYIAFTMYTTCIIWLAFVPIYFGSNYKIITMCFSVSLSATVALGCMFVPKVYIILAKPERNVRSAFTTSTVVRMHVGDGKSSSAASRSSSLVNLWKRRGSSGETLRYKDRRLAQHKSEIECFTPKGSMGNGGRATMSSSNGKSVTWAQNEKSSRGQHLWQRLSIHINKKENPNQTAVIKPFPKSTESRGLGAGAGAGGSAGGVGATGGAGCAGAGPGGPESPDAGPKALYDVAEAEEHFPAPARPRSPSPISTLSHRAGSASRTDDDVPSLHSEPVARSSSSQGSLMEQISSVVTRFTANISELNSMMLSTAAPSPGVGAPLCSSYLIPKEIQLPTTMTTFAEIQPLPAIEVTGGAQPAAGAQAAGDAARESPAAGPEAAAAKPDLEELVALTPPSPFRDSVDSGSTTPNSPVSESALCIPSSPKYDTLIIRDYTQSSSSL
# [19] = target: D(1A) dopamine receptor (Homo sapiens) (UniProt P21728); assay: Displacement of [3H]-SCH-23390 from dopamine D1 receptor (unknown origin) at 1 uM
# [20] = target: T2, Sigma intracellular receptor 2 (Rattus norvegicus, UniProt Q5U3Y7); assay: Displacement of [3H]-DTG from sigma2 receptor in rat liver membranes after 120 mins by liquid scintillation counting; assay type: cell membranes, Membrane
# T2 sequence (Q5U3Y7 whole entry): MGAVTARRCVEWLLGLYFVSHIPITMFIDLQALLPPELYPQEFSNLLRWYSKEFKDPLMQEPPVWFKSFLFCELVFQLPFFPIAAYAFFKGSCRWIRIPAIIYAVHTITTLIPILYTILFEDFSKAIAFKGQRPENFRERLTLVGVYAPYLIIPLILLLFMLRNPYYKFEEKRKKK
# [21] = target: C-X-C chemokine receptor type 2 (Homo sapiens) (UniProt P25025); assay: Displacement of [125I]-IL-8 from CXCR2 receptor (unknown origin) at 1 uM
# C-X-C chemokine receptor type 2 (Homo sapiens), sequence (P25025 whole entry): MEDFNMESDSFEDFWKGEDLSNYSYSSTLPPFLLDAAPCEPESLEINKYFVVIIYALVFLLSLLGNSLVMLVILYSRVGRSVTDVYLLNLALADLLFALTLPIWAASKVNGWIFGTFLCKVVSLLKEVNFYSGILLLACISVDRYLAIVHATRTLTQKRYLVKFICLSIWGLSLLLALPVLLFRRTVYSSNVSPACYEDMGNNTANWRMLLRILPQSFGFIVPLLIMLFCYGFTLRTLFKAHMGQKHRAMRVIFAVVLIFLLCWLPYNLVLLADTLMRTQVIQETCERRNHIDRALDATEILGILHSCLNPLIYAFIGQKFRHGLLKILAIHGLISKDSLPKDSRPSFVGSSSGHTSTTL
# [22] = target: Alpha-1B adrenergic receptor (Homo sapiens) (UniProt P35368); assay: Displacement of [3H]-prazosin from adrenergic alpha1B receptor (unknown origin) at 1 uM
# Alpha-1B adrenergic receptor (Homo sapiens), sequence (P35368 whole entry): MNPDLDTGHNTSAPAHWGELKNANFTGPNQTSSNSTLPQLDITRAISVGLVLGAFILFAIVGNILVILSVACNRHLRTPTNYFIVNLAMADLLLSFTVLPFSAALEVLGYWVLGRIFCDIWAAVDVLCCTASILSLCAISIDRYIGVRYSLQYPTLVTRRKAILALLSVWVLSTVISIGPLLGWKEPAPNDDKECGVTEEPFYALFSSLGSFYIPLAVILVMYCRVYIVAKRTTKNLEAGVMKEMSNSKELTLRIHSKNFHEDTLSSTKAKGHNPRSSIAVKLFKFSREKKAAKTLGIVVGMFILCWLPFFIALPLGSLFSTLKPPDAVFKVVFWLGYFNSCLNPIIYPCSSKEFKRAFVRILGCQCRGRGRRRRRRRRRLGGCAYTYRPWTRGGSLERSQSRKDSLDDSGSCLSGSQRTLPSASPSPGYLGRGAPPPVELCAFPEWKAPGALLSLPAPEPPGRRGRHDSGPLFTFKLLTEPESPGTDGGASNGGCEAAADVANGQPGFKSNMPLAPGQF
# [23] = target: Alpha-2A adrenergic receptor (Homo sapiens) (UniProt P08913); assay: Displacement of [3H]-MK-912 from adrenergic alpha2A receptor (unknown origin) at 1 uM
# Mus musculus [24] = assay: Toxicity in mouse assessed as diarrhea at 100 mg/kg, ip by Irwin test; assay type: organism-based; conditions: in vivo
# Homo sapiens [25] = species on record: Homo sapiens; assay: Displacement of [3H]-muscimol from […] GABAA receptor (unknown origin) at 1 uM
# [26] = target: Estrogen receptor (Homo sapiens) (UniProt P03372); assay: Displacement of [3H]-estradiol from estrogen ERalpha receptor (unknown origin) at 1 uM
# [27] = target: Glutamate [NMDA] receptor (Homo sapiens) (UniProt Q05586+Q12879+Q13224+O15399+O60391+Q14957+Q8TCU5); assay: Displacement of [3H]-TCP from glutamate NMDA receptor phencyclidine binding site (unknown origin) at 1 uM
# [28] = target: Kappa-type opioid receptor (Homo sapiens) (UniProt P41145); assay: Displacement of [3H]-d iprenorphine from kappa opioid receptor (unknown origin) at 1 uM
# [29] = target: Gastrin-releasing peptide receptor (Homo sapiens) (UniProt P30550); assay: Displacement of [125I]-(Tyr4)-bombesin from bombesin BB2 receptor (unknown origin) at 1 uM
# Gastrin-releasing peptide receptor (Homo sapiens), sequence (P30550 whole entry, looked up): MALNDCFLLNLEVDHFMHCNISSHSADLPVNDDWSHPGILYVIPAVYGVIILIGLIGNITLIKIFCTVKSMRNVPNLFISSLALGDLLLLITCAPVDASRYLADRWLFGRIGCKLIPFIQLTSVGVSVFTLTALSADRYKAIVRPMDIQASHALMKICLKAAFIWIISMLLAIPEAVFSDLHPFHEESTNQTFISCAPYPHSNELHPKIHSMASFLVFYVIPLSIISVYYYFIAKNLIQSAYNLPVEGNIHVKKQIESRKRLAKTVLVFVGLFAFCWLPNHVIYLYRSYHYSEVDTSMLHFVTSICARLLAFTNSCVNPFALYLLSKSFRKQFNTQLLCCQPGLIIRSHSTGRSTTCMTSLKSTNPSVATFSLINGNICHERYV
# Histamine H2 receptor [30] = target: T1, Histamine H2 receptor; assay: Displacement of [125I]-aminopotentidine receptor from histamine H2 receptor (unknown origin)
# [31] = target: B1 bradykinin receptor (Homo sapiens) (UniProt P46663); assay: Displacement of [3H]-(Des-Arg10)-Kallidin from bradykinin B1 receptor (unknown origin) at 1 uM
# B1 bradykinin receptor (Homo sapiens), sequence (P46663 whole entry): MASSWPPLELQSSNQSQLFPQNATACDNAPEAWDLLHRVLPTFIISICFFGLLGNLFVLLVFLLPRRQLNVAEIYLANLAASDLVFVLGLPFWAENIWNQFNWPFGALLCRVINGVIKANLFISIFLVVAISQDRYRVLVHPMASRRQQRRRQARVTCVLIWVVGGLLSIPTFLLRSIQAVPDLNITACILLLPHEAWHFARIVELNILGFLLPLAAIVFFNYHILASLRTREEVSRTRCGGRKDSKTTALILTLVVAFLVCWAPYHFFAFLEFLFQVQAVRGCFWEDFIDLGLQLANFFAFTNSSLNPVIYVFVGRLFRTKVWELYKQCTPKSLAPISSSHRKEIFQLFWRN
# [32] = target: Neuropeptide Y receptor type 2 (Homo sapiens) (UniProt P49146); assay: Displacement of [125I]-Peptide YY from neuropeptide Y Y2 receptor (unknown origin) at 1 uM
# Homo sapiens [33] = species on record: Homo sapiens; assay: Displacement of [3H]-Idazoxan from imidazoline I2 receptor (unknown origin) at 1 uM
# Rattus norvegicus = assay: Analgesic activity in rat assessed as inhibition of formalin-induced pain by measuring time spent licking injected paw in late phase (10 to 35 min) administered at 10 mg/kg by two-phase analgesic formalin assay; assay type: functional, organism-based
# [34] = target: Beta-1 adrenergic receptor (Homo sapiens) (UniProt P08588); assay: Displacement of [125I]-cyanopindolol from adrenergic beta1 receptor (unknown origin) at 1 uM
# Beta-1 adrenergic receptor (Homo sapiens), sequence (P08588 whole entry, looked up): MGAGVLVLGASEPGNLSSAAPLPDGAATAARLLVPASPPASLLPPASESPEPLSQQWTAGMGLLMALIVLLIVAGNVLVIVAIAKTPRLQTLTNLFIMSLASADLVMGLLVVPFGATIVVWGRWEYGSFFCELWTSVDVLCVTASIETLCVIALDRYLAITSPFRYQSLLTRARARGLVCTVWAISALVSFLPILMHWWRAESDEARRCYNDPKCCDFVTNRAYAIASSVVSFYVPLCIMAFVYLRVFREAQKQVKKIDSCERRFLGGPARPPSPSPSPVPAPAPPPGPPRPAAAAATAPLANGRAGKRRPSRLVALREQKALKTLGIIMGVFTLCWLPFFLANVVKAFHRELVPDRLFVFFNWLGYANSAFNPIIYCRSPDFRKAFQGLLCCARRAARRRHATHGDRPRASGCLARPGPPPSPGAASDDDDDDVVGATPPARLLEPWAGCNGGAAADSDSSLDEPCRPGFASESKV
# [35] = target: Endothelin-1 receptor (Homo sapiens) (UniProt P25101); assay: Displacement of [125I]-endothelin-1 from endothelin ETA receptor (unknown origin) at 1 uM
# [36] = Displacement of [3H]-(+)-MK 801 from PCP binding site of NMDA receptor in pig brain cortex membranes after 120 mins by liquid scintillation spectrometry; assay type: cell membranes, Sus scrofa
structure (smiles),measurement,setting,value
COc1ccc(CN2CCCN(Cc3ccccc3)[C@@H](C)C2)cc1,inhibition,[1],inactive
same,inhibition,[2],inactive
same,inhibition,[3],inactive
same,inhibition at 1 µM,CYP2D6,60%
same,inhibition,[4],inactive
same,Activity,Mus musculus [5],Toxic
same,Activity,Mus musculus [6],Toxic
same,inhibition,[7],inactive
same,inhibition,[8],inactive
same,remaining at 5 min,[9],< 50%
same,inhibition,Histamine H2 receptor [10],50%
same,Activity,[11],29%
same,inhibition,[12],inactive
same,inhibition,[13],inactive
same,Activity,Mus musculus [14],Toxic
same,inhibition,[15],inactive
same,inhibition,[16],inactive
same,inhibition,Homo sapiens [17],inactive
same,inhibition,[18],inactive
same,inhibition,[19],inactive
same,Ki,[20],0.046 µM
same,inhibition,[21],inactive
same,inhibition,[22],inactive
same,inhibition,[23],inactive
same,Activity,Mus musculus [24],Toxic
same,inhibition,Homo sapiens [25],inactive
same,inhibition,[26],inactive
same,inhibition,[27],inactive
same,inhibition,[28],inactive
same,inhibition,[29],inactive
same,IC50,Histamine H2 receptor [30],1 µM
same,inhibition,[31],inactive
same,inhibition,[32],inactive
same,inhibition,Homo sapiens [33],inactive
same,Activity,Rattus norvegicus,Active
same,inhibition,[34],inactive
same,inhibition,[35],inactive
same,IC50,[36],> 1 µM

# Reference: ChEMBL document CHEMBL4043136, “Chiral-pool synthesis of 1,2,4-trisubstituted 1,4-diazepanes as novel σ1 receptor ligands” (Bioorg Med Chem, 2017)
